Results from patent US10017554B2, “Neuropeptide Y-derived peptides” (University of Copenhagen, priority 2013, dated 2018).

System: hippocampal neurons
Assay: Neurite outgrowth in cultures of rat hippocampal neurons, embryonic day 19, 24 h
Assay type: cell-based
Details: for Neuritogenic effect 3 μM NPY fragment (% of control): 3 μM peptide; for neurite outgrowth / neuritogenic effect (in words): E19 prenatal rat hippocampal cultures
Description: When pharmacological inhibitors or antagonist are applied these are added to cultures 10 min prior to peptide addition. When soluble immunoglobulin modules are used, these are preincubated with peptide solution for 10 min before addition of the mix to the cultures. To knock down NCAM expression, the neurons were transfected with a p-GFP—V-RS vector that encodes short-hairpin RNA targeting NCAM (OriGene, Rockville, Md., USA) using a nucleofector device and a Rat Neuron Nucleofector kit (Amaxa, Gaithersburg, Md., USA). NCAM knock-out mice (C57BI/6JZtm) were a kind gift from prof. Herbert Hildebrandt (Hannover Medical School) and were created as previous described (Cremer et al., 1994). The neurons were fixed, immunostained, and micrographs were recorded and evaluated as previously described (Rønn et al., 2000; Nielsen et al., 2009). Cf. FIGS. 3-9
Neurite outgrowth in cultures of hippocampal neurons from wistar rats, embryonic stage day 19, incubated for 24 hours (37° C., 5% CO2) in supplemented Neurobasal medium with NPY fragments added; effect compared to un-stimulated controls (set to 100%). Values are mean normalized to un-stimulated controls±standard error of mean (SEM). *P<0.05, […], […], Student's t-test versus un-stimulated control.

[1] = un-stimulated controls set to 100%, mean ± SEM

Sequence	Neuritogenic effect 1 μM NPY fragment (% of control) (1 μM peptide, un-stimulated controls set to 100%, mean ± SEM)	Neuritogenic effect 3 μM NPY fragment (% of control) [1]	neurite outgrowth / neuritogenic effect (in words)
PAEDMARYYSALRHYINLITRQR (listed as Homo sapiens) [NPY13-35]	164.2 ± 7.2 % of control	275.8 ± 31.2 % of control	–
RQRTILNIYHRLASYYRAMDEAPADEGPNDPKS (listed as Homo sapiens) [NPY3-35 reversed sequence, reference compound]	–	–	did not induce the same neuritogenic effects
SALRHYINLITRQR (listed as Homo sapiens) [NPY22-35]	–	–	does not
YSALRHYINLITRQR (listed as Homo sapiens) [NPY21-35]	–	266.4 ± 26.6 % of control	induce neurite outgrowth
ALRHYINLITRQRA (listed as Homo sapiens) [NPY23-36 ala36]	–	91.7 (n = 1) % of control	–
